Converted amounts (≈) assume the structure as drawn. “And” between values parts separate entries of the source, which are not always exact repeats. Equal entries are not always repeated. Where two headings read alike, the source gives them in different places.
What was measured:
[1] = Water solubility limit by visual examination (transparent/turbid); assay type: physicochemical; conditions: water, water; for solubility: thermodynamic from solid, read-out: Solubility Limit (S/mM)
Excerpt: Water solubility reflects the ability of a particular molecule to dissolve and its interaction with water. To characterize the water solubility of most amphiphile molecules, especially the ionic surfactants, the Krafft point (Tk) is often used, referring to the critical temperature above which micelles form or the melting point of the hydrated solid surfactant. Two general approaches were used to measure the Tks of the molecules investigated herein: (1) a visual examination of the dissolution phenomenon for binary molecule/water systems, and (2) a quantitative measurement by using differential scanning calorimetry (DSC) analysis. The visual observation procedure is detailed below. […] Consequently, molecules can be classified into two major types: those soluble in water at RT and others insoluble at RT, with the solubility limit being called S (expressed in mM). The aspect of the sample, either transparent or turbid, is determined by direct visual examination. Tk determination with DSC is particularly applicable in the case of molecules insoluble at RT, for which a concentrated binary molecule/water mixture with a mass fraction of 20% of each molecule (C >> CMC in most cases) was prepared at 65 °C under stirring for 30 min to obtain a homogeneous system. These pre-homogenized aqueous systems were cooled and conserved in a refrigerator at 4 °C for a suitable period (>7 days), during which equilibrated hydrated crystals formed and precipitated. Then, for each molecule, about a 200–400 mg crystal sample was taken and put into the calorimeter cell. The first equilibrium phase was programmed at 4 °C for 1 h, followed by a slow heating stage from 4 °C to 65 °C at a rate of 0.5 °C/min. Tk was determined based on the location of the endothermic peak on the DSC curve, if any. All agitations were performed using a standard magnetic hotplate stirrer, MR 3001K (Heidolph Instruments, Schwabach, Germany). DSC curves were obtained from a commercial µDSC7 evo calorimeter (SETARAM Instrumentation, Caluire-et-Cuire, France). Tks are reported as the averages of at least two measurements as well as their standard deviations.

[2] = Krafft temperature (Tk) by visual examination and DSC of molecule/water systems; assay type: physicochemical; conditions: in water; observation and DSC; average ± SD of at least two measurements
Excerpt: Water solubility reflects the ability of a particular molecule to dissolve and its interaction with water. To characterize the water solubility of most amphiphile molecules, especially the ionic surfactants, the Krafft point (Tk) is often used, referring to the critical temperature above which micelles form or the melting point of the hydrated solid surfactant. Two general approaches were used to measure the Tks of the molecules investigated herein: (1) a visual examination of the dissolution phenomenon for binary molecule/water systems, and (2) a quantitative measurement by using differential scanning calorimetry (DSC) analysis. The visual observation procedure is detailed below. We start with adding the molecule into 5–50 mL water, in a concentration range between 10^−2 mM and 10^3 mM (corresponding to a range of a surfactant mass concentration well below 20%), keeping the suspension under stirring for a certain time at room temperature (RT). Consequently, molecules can be classified into two major types: those soluble in water at RT and others insoluble at RT, with the solubility limit being called S (expressed in mM). The aspect of the sample, either transparent or turbid, is determined by direct visual examination. Tk determination with DSC is particularly applicable in the case of molecules insoluble at RT, for which a concentrated binary molecule/water mixture with a mass fraction of 20% of each molecule (C >> CMC in most cases) was prepared at 65 °C under stirring for 30 min to obtain a homogeneous system. These pre-homogenized aqueous systems were cooled and conserved in a refrigerator at 4 °C for a suitable period (>7 days), during which equilibrated hydrated crystals formed and precipitated. Then, for each molecule, about a 200–400 mg crystal sample was taken and put into the calorimeter cell. The first equilibrium phase was programmed at 4 °C for 1 h, followed by a slow heating stage from 4 °C to 65 °C at a rate of 0.5 °C/min. Tk was determined based on the location of the endothermic peak on the DSC curve, if any. All agitations were performed using a standard magnetic hotplate stirrer, MR 3001K (Heidolph Instruments, Schwabach, Germany). DSC curves were obtained from a commercial µDSC7 evo calorimeter (SETARAM Instrumentation, Caluire-et-Cuire, France). Tks are reported as the averages of at least two measurements as well as their standard deviations.

[3] = Equilibrium surface tension, Wilhelmy plate method (CMC, γcmc, Amin and derived quantities); assay type: physicochemical; conditions: for Amin: from Gibbs adsorption equation
Method: CMCs are determined from the inflections in the plots of equilibrium surface tension against the logarithm of the concentration. For the interested reader, the Gibbs-free energy of micellization, ΔGmic, the Gibbs-free energy of adsorption, ΔGads, and the efficiency of surfactant adsorption pC20 were calculated based on their definitions, as presented in Table 2.
The surface activity reflects the amphiphiles’ adsorption behavior on the air–aqueous solution interface. The surface tension (γ) was obtained using the Wilhelmy plate method with a K100 Processor Tensiometer (KRUSS, Hamburg, Germany). Both the critical micellar concentration (CMC) and equilibrium surface tension at the CMC (γcmc) were derived from the typical plot of surface tension (γ) against the logarithm of concentration (Log C). The surface excess (Γmax) and minimal area per molecule at the air–aqueous solution interface (Amin) at different temperatures were calculated from the Gibbs adsorption equation [3, 46]:(2) Γmax=−1/2.303RT(dγ/dlogc) and (3) Amin=10^20/NAΓmax where R is the ideal gas constant, 8.31 J∙mol^−1∙K^−1; T is the measuring temperature, K; γ is the surface tension, N/m; c is the concentration, mol.L^−1; Amin is the minimal area per molecule, Å^2, and NA is Avogadro’s number, 6.022·10^23 mol^−1.
For each molecule, several solutions of a wide range of concentrations were prepared. Before measuring, each solution was finely homogenized with the help of a magnetic stirring bar. The stirring time was fixed at 30 min in all cases. […] Then, measurements were performed once for each concentration, at the solution preparation’s temperature, with an uncertainty of ±1 °C.

[4] = cited from earlier work
[5] = above its Tk; cited from earlier work
[6] = at 25 °C, mixture of α and β anomers

| solubility ([1]; at RT) [mM] | Tk (Krafft temperature) [2] [°C] | C20 ([3]; T = 25 °C) [mM] | pC20 ([3]; T = 25 °C) | ΔGads ([3]; T = 25 °C) [kcal/mol] | ΔGmic ([3]; T = 25 °C) [kcal/mol] | CMC ([3]; T = 25 °C (T > Tk)) | γcmc ([3]; T = 25 °C (T > Tk)) [mN/m] | Amin ([3]; T = 25 °C) [Å^2/molecule] | SMILES | other results |
| --- | --- | --- | --- | --- | --- | --- | --- | --- | --- | --- |
| > 100 | <4 | 0.7 | 3.1 | -7.3 | -4.6 | 8.5 ± 0.5 mM | 28.3 ± 0.35 | 42.7 ± 2.4 | CCCCCCCC(=O)OC[C@H]1O[C@@H](OC)[C@H](O)[C@@H](O)[C@H]1O [MeβGalO(C=O)C7, Methyl 6-O-octanoyl-β-D-galactopyranoside] | Solubility Limit (S/mM) ([1]; at T > Tk): high solubility limits |
| < 40 | <4 | 11.2 | 2.0 | -5.6 | -3.3 | 105 ± 5 mM | 31 ± 0.1 | 40.1 ± 0.3 | CCCCCC(=O)OC[C@H]1O[C@H](OC)[C@H](O)[C@@H](O)[C@@H]1O [MeαGlcO(C=O)C5, Methyl 6-O-hexanoyl-α-D-glucopyranoside] |  |
|  | 42.9 ± 0.1 |  |  |  |  |  |  |  | CCCCCCCCCCCC(=O)OC[C@H]1O[C@H](OC)[C@H](O)[C@@H](O)[C@@H]1O [MeαGlcO(C=O)C11, Methyl 6-O-dodecanoyl-α-D-glucopyranoside] | Solubility Limit (S/mM) ([1]; at RT): insoluble; solubility ([1]; at T > Tk): ≤ 0.1 mM; C20 ([3]; T = 50 °C): 0.007 mM; pC20 ([3]; T = 50 °C): 5.1; ΔGads ([3]; T = 50 °C): -10.4 kcal/mol; ΔGmic ([3]; T = 50 °C): -7.7 kcal/mol; CMC ([3]; T = 50 °C (T > Tk)): 0.08 ± 0.005 mM; γcmc ([3]; T = 50 °C (T > Tk)): 26.7 ± 0.25 mN/m; Amin ([3]; T = 50 °C): 45.8 ± 2.8 Å^2/molecule |
| ≤ 10 | <4 | 1.0 | 3.0 | -6.9 | -4.5 | 9.8 mM and 9.8 ± 0.76 mM | 29.5 ± 0.5 | 39 ± 2 | CCCCCCCC(=O)OC[C@H]1O[C@H](OC)[C@H](O)[C@@H](O)[C@@H]1O [MeαGlcO(C=O)C7, Methyl 6-O-octanoyl-α-D-glucopyranoside] | solubility ([1]; at T > Tk): < 10 mM |
|  | 26.5 ± 0.2 |  |  |  |  |  |  |  | CCCCCCCCCC(=O)OC[C@H]1O[C@H](OC)[C@H](O)[C@@H](O)[C@@H]1O [MeαGlcO(C=O)C9, Methyl 6-O-decanoyl-α-D-glucopyranoside] | Solubility Limit (S/mM) ([1]; at RT): insoluble; solubility ([1]; at T > Tk): ≤ 1 mM; C20 ([3]; T = 30 °C): 0.08 mM; pC20 ([3]; T = 30 °C): 4.1; ΔGads ([3]; T = 30 °C): -8.4 kcal/mol; ΔGmic ([3]; T = 30 °C): -5.8 kcal/mol; CMC ([3]; T = 30 °C (T > Tk)): 0.92 ± 0.08 mM; γcmc ([3]; T = 30 °C (T > Tk)): 27.9 ± 0.05 mN/m; Amin ([3]; T = 30 °C): 41.8 ± 0.9 Å^2/molecule |

The next lines start with the compound.

| SMILES | solubility ([1]; at RT) [mM] | Tk (Krafft temperature) [2] [°C] | C20 ([3]; T = 25 °C) [mM] | pC20 ([3]; T = 25 °C) | ΔGads ([3]; T = 25 °C) [kcal/mol] | ΔGmic ([3]; T = 25 °C) [kcal/mol] | CMC ([3]; T = 25 °C (T > Tk)) | γcmc ([3]; T = 25 °C (T > Tk)) [mN/m] | Amin ([3]; T = 25 °C) [Å^2/molecule] | other results |
| --- | --- | --- | --- | --- | --- | --- | --- | --- | --- | --- |
| CCCCCCCCCCCCOC(=O)[C@H]1O[C@H](OC)[C@H](O)[C@@H](O)[C@@H]1O [MeαGlc(C=O)OC12] | 0.02 to 0.05 (≈ 7.53 to 18.8 µg/mL) | 22.1 ± 0.2 | 0.004 | 5.4 | -10.1 | -7.2 | 0.056 ± 0.004 mM | 28.3 ± 0.3 | 45.6 ± 5 |  |
| CCCCCCCC(=O)OC[C@H]1O[C@@H](O)[C@H](O)[C@@H](O)[C@@H]1O [6-O-octanoyl-β-glucose] |  |  |  |  |  |  |  |  |  | CMC ([4]; ref 20): 18 mM; solubility limit [5]: 25 mg/mL and > 80 mM |
| CCCCCCCCOC(=O)[C@H]1O[C@@H](OC)[C@H](O)[C@@H](O)[C@H]1O [MeβGal(C=O)OC8, methyl octyl galacturonate] |  | 31.6 ± 0.9 |  |  |  |  |  |  |  | Solubility Limit (S/mM) ([1]; at RT): insoluble; Solubility Limit (S/mM) ([1]; at T > Tk): high solubility limits; solubility ([1]; at T > Tk): > 100 mM; C20 ([3]; T = 40 °C): 1.2 mM; pC20 ([3]; T = 40 °C): 2.9; ΔGads ([3]; T = 40 °C): -7.4 kcal/mol; ΔGmic ([3]; T = 40 °C): -5.0 kcal/mol; CMC ([3]; T = 40 °C (T > Tk)): 6.9 ± 0.4 mM; γcmc ([3]; T = 40 °C (T > Tk)): 29.4 ± 0.36 mN/m; Amin ([3]; T = 40 °C): 42.9 ± 3.9 Å^2/molecule |
| CCCCCCCCOC(=O)[C@H]1O[C@H](OC)[C@H](O)[C@@H](O)[C@@H]1O [MeαGlc(C=O)OC8, methyl octyl α-D-glucuronate] | 15 to 20 (≈ 4810 to 6410 µg/mL) | <4 | 0.5 | 3.3 | -7.3 | -4.8 | 6 mM and 6 ± 0.5 mM | 29.2 ± 0.35 | 41 ± 1 |  |
| CCCCCCOC(=O)[C@H]1O[C@H](OC)[C@H](O)[C@@H](O)[C@@H]1O [MeαGlc(C=O)OC6] | ≤ 50 | <4 | 5.9 | 2.2 | -5.9 | -3.6 | 55 ± 5 mM | 30.8 ± 0.8 | 39.2 ± 2.9 |  |
| CCCCCCCCOC(=O)[C@@H](O)[C@@H](O)[C@H](O)[C@@H](O)C=O [octyl D-glucuronate] |  |  |  |  |  |  |  |  |  | CMC [4, 6]: 10.7 mM; CMC ([4]; ref 17): 10.68 mM |
| CCCCCCCCCCOC(=O)[C@H]1O[C@H](OC)[C@H](O)[C@@H](O)[C@@H]1O [MeαGlc(C=O)OC10] | 0.5 to 0.75 (≈ 174 to 261 µg/mL) | <4 | 0.05 | 4.3 | -8.6 | -5.9 | 0.65 ± 0.5 mM | 28.1 ± 0.1 | 42.4 ± 2 |  |
| CCCCCCCC(=O)OC1O[C@H](CO)[C@@H](O)[C@H](O)[C@H]1O (stereo partly drawn) [D-glucosyl octanoate] |  |  |  |  |  |  |  |  |  | CMC [4, 6]: 19.1 mM |
| CCCCCCCC(=O)O[C@H]1[C@H](O)[C@@H](CO)OC(O)[C@@H]1O (stereo partly drawn) [3-O-octanoyl-D-glucopyranose] |  |  |  |  |  |  |  |  |  | CMC ([4]; mixture of α and β anomers): 0.61 mM; CMC ([4]; ref 21): 1.6 mM |

Source: PMC11123692, “Sugar-Based Surfactants: Effects of Structural Features on the Physicochemical Properties of Sugar Esters and Their Comparison to Commercial Octyl Glycosides” (Molecules, 2024)
